Source: ChEMBL document CHEMBL1201862, “PubChem BioAssay data set” (2004)
Calls of active or inactive are those of the source.

Columns and labels:
[1] = biological target: T1, Apoptotic protease-activating factor 1 (Homo sapiens, UniProt O14727); test: SAR analysis of small molecule Activators of Apaf-1 in a Fluorescent assay.; format: functional; conditions: read-out: EC50_Mean;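 note: caspase-3 cleavage of fluorogenic Rh110 DEVD substrate downstream of apoptosome activation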
T1 sequence (O14727 whole entry): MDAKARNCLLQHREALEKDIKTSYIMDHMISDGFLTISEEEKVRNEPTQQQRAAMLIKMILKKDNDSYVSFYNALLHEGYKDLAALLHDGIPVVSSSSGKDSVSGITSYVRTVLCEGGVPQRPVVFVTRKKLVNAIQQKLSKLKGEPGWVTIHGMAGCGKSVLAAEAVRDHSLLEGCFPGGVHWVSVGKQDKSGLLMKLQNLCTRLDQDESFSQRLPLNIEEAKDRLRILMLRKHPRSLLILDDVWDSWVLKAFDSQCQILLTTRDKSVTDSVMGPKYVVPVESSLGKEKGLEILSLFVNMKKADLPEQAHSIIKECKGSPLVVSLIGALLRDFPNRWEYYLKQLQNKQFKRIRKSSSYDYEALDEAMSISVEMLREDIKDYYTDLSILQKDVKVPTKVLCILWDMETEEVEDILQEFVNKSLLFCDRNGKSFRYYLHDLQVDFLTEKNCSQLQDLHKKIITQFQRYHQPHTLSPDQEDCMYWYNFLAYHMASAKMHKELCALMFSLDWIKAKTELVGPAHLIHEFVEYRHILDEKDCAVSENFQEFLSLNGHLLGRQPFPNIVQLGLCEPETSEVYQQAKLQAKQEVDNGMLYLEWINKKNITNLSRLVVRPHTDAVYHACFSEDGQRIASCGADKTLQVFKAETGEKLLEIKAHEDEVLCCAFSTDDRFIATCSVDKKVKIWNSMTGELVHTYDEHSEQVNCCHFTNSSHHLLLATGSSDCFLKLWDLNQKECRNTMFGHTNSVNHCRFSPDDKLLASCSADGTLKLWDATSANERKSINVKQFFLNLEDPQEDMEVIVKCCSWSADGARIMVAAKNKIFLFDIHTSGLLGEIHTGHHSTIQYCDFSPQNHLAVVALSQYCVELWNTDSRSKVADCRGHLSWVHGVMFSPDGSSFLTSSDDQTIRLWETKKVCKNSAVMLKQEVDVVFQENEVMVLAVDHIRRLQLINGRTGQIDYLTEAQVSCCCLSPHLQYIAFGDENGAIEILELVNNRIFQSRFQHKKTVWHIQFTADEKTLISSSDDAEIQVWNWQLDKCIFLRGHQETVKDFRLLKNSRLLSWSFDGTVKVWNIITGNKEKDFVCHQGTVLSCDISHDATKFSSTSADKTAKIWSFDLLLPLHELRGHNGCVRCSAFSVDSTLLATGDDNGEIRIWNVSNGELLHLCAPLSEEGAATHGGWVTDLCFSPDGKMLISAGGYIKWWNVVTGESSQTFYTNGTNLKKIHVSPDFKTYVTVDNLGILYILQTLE

Caspase-3 [2] = biological target: T2, Caspase-3 (Homo sapiens, UniProt P42574); format: functional
T2 sequence (P42574 whole entry): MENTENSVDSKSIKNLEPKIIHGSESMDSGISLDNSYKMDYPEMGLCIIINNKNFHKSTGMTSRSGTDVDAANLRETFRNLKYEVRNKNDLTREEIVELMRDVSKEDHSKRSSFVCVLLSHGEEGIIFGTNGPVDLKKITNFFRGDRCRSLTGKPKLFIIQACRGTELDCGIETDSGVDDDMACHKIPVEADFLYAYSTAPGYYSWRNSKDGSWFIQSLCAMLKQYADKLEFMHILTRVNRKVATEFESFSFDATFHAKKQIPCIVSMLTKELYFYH

[3] = biological target: T3, Sentrin-specific protease 7 (Homo sapiens, UniProt Q9BQF6); format: functional;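 note: Luminescence-based dose-response confirmation of ultra-high-throughput screening hits, measuring inhibition of SENP7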
T3 sequence (Q9BQF6 whole entry): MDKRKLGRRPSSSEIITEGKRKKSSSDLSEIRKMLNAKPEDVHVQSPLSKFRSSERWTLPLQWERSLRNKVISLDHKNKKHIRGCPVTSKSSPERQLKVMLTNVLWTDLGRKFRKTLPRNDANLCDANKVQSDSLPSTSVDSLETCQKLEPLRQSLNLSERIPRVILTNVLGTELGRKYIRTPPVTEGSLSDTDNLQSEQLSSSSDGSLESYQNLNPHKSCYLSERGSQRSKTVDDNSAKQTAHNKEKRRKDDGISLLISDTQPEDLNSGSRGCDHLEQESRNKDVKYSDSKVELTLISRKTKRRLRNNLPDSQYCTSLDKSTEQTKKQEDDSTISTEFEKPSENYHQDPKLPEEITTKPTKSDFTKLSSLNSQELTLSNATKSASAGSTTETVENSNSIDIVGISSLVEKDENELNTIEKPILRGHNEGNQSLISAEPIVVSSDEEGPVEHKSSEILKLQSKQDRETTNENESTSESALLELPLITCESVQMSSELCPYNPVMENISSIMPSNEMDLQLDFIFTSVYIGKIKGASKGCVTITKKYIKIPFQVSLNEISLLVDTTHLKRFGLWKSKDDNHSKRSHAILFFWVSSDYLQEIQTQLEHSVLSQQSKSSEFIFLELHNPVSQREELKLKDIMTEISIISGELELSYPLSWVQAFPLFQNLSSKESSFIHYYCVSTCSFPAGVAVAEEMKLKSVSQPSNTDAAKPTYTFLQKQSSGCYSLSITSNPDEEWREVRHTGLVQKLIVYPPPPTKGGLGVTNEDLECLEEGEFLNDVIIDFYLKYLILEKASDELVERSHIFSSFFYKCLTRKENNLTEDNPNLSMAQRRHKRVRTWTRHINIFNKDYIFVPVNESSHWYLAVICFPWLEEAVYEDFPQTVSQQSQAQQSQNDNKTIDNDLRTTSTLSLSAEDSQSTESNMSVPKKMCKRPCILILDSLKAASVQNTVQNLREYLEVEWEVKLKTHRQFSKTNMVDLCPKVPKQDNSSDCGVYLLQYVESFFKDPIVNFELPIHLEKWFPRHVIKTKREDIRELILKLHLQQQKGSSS

[4] = biological target: T4, Sentrin-specific protease 6 (Homo sapiens, UniProt Q9GZR1); format: functional
T4 sequence (Q9GZR1 whole entry): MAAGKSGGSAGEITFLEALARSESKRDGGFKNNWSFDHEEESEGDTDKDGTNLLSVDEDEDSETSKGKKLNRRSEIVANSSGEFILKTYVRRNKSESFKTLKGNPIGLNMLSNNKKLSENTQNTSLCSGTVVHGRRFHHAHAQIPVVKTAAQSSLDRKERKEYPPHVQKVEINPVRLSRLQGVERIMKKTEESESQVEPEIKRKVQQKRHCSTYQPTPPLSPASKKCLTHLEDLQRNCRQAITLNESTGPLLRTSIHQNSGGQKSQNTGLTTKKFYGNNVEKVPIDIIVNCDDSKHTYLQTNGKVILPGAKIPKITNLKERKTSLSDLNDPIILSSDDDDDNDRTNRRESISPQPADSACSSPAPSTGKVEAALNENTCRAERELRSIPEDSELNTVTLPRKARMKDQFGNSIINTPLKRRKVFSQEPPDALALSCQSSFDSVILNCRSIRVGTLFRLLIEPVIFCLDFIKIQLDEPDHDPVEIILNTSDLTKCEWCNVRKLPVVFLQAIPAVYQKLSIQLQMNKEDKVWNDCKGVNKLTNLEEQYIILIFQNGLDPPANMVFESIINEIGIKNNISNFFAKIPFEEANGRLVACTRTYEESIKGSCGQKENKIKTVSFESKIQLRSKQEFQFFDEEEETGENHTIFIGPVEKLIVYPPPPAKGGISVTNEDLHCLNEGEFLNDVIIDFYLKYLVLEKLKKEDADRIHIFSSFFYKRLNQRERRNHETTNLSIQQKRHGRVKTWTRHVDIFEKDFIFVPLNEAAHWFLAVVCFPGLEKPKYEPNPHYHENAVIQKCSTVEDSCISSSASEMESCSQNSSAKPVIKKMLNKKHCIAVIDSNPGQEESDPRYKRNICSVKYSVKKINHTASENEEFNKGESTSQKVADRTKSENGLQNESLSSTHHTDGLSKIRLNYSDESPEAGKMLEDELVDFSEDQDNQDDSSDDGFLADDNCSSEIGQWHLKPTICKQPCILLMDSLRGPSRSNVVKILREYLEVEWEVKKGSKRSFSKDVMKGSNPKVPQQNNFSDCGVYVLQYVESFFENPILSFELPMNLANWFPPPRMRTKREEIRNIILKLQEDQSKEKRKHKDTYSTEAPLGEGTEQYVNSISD

[5] = biological target: T5, Sentrin-specific protease 8 (Homo sapiens, UniProt Q96LD8); format: functional;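 note: luminescence read-out of SENP8 inhibition, dose-response confirmation following an ultra-high-throughput screen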
T5 sequence (Q96LD8 whole entry): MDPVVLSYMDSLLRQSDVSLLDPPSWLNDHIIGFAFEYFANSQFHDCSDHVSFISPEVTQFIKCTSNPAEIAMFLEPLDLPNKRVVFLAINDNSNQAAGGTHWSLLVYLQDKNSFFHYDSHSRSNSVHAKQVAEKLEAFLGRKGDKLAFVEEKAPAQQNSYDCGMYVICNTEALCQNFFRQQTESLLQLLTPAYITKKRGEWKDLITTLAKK

P388/ADR = test: cells; format: functional; conditions: Mus musculus
SN12K1 = test: cells; format: functional; conditions: Homo sapiens
P388 = test: cells; format: functional; conditions: Mus musculus
Protein Wnt-3a = Protein Wnt-3a (Mus musculus, UniProt P27467); test: Wnt3a-driven reporter signaling inhibition, dose response, selectivity assay for Gli-SUFU antagonist project, Wnt-LIGHT cells, luminescence (AID 651570); format: functional; conditions: read-out: IC50_Mean;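 note: Wnt-LIGHT reporter cells stimulated with conditioned medium from Wnt3a-producing cells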
[6] = biological target: T5, Sentrin-specific protease 8; test: SENP8 protease inhibitors, SAR follow-up, biochemical, luminescence (AID 504501); format: functional
Caspase-3 [7] = biological target: T2, Caspase-3; test: SAR Analysis of small molecule inhibitors of Sentrin-specific proteases (SENPs) using a Caspase-3 Selectivity assay. [Related pubchem assays (depositor defined):AID2540, AID2599, AID434973, AID489001]; format: functional
[8] = biological target: T4, Sentrin-specific protease 6; test: SAR Analysis of small molecule inhibitors of Sentrin-specific protease 6 (SENP6) using a Luminescent assay. [Related pubchem assays (depositor defined):AID2582, AID2599]; format: functional
[9] = biological target: T3, Sentrin-specific protease 7; test: SENP7 protease inhibitors, SAR follow-up, biochemical, luminescence (AID 504497); format: functional
[10] = inhibitors of HIV Env-driven cell fusion, dose response, cherry-pick (AID 652057); format: functional, cell-based
[11] = ZM109 Env clade C HIV-1 fusion inhibitors, dose response, HeLa effector, CEM target cells, luciferase, cherry-pick (AID 652058); format: functional, cell-based
[12] = off-target signal loss in HeLa-CEM21 co-culture – HeLa F-luc CTL cells, cherry-picked, counter-screen for HIV-1 Env fusion inhibitor project, dose response (AID 652040); format: functional, cell-based;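 note: potency for signal decrease marking cytotoxic or nonspecific inhibition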
[13] = HEp-2 cell cytotoxicity, dose response, cytotoxicity control for RSV inhibitor project, HTS (AID 2410); format: functional; conditions: human respiratory syncytial virus
[14] = biological target: Luciferin 4-monooxygenase (Photinus pyralis, UniProt P08659); test: Counter Screen for Luciferase-based Assay Positives. [Related pubchem assays: 620, 618, 411 ]
HT-1080 = test: cytotoxicity in HT1080 fibrosarcoma cells, cell-based, fluorescence readout (AID 620); format: functional; conditions: Homo sapiens
[15] = system: Streptococcus sp. 'group A'; test: growth inhibition of control SK(-) GAS strain, dose response, counter-screen for streptokinase expression inhibitor project, luminescence, kanamycin, BacTiterGlo, confirmation (AID 1900); format: functional, organism-based
Streptococcus = test: Group A Streptococcus viability loss, dose response, counter-screen for streptokinase expression inhibitor project, luminescence, BacTiterGlo (AID 1915); format: functional, organism-based;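 note: potency for reduction of bacterial viability or growth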

Chain of Protein Wnt-3a (P27467 whole entry): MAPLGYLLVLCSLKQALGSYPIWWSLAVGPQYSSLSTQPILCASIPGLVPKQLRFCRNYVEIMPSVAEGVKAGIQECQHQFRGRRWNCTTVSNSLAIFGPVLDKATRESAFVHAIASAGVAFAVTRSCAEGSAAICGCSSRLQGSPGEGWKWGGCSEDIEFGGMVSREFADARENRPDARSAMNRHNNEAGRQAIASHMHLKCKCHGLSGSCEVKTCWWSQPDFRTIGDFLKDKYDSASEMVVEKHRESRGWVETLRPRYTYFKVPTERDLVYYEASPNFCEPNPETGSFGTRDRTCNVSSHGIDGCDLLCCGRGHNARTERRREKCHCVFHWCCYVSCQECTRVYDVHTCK
Chain of Luciferin 4-monooxygenase (P08659 whole entry): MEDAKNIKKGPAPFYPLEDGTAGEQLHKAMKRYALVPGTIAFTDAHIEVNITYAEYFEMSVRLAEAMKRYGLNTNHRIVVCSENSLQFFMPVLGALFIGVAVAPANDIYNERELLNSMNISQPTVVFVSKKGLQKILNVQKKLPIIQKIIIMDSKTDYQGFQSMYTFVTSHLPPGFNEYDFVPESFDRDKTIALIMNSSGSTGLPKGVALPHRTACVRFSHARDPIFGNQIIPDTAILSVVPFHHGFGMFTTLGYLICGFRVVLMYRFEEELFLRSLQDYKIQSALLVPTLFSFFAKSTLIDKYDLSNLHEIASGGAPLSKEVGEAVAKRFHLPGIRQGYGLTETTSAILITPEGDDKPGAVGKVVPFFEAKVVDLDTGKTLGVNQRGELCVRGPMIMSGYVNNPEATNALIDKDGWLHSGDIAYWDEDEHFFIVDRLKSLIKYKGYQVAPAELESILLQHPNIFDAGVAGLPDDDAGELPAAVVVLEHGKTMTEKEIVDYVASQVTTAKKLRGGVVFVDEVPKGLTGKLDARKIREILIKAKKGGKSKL

O=C(Nc1nc2ccsc2c(=O)s1)c1cccs1
EC50 [1]: > 100 µM (inactive)

N#Cc1ccccc1COC(=O)c1ccc2c(c1)OCCO2
IC50 (Caspase-3 [2]): 19.9 µM (active) | IC50 [3]: 8.48 µM (active) | IC50 [4]: 22.5 µM (active) | IC50 [5]: 27.5 µM (active)

Cc1ccc(O)c(NC(=O)C2CC(c3ccc(F)cc3)=NO2)c1 (centres undefined)
EC50 [1]: > 100 µM (inactive)

CCCSc1nc(COC(=O)NC)c(COC(=O)NC)n1C
GI50 (P388/ADR): 23.8 µM (inactive) | GI50 (SN12K1): > 100 µM (inactive) | GI50 (P388): 21.1 µM (inactive)

Cc1nnsc1C(=O)NC1CCCc2c1cnn2-c1ccc(F)cc1F (centres undefined)
IC50 (Protein Wnt-3a): 3.91 µM (active)

CCc1ccc(-c2nc(/C=C/c3ccc(F)cc3)no2)cc1
IC50 [6]: > 99 µM (inactive) | IC50 (Caspase-3 [7]): > 99 µM (inactive) | IC50 [8]: > 99 µM (inactive) | IC50 [9]: > 99 µM (inactive)

Nc1ccn(C2OC(COC(=O)C34CC5CC(CC(C5)C3)C4)C(O)C2O)c(=O)n1 (centres undefined)
GI50 (P388/ADR): 0.889 µM (active) | GI50 (SN12K1): 4.46 µM (inactive) | GI50 (P388): 0.506 µM (active) | AC50 [10]: 0.652 µM (active) | AC50 [11]: < 0.26 µM (active) | AC50 [12]: 36.9 µM (active)

CCCC(=O)Nc1ccc(-c2nc3cc(C)ccc3o2)cc1
CC50 [13]: 26.7 µM (active) | EC50 [14]: 0.21 µM (active) | EC50 (HT-1080): > 50 µM (not active) | IC50 (Caspase-3 [2]): 23.5 µM (active) | IC50 [3]: 4.35 µM (active) | IC50 [4]: 64.7 µM (active) | IC50 [5]: 45.2 µM (active)

C(=N\Nc1ccccc1)/c1cn(Cc2ccccc2)c2ccccc12
IC50 [6]: > 99 µM (inactive) | IC50 (Caspase-3 [7]): > 99 µM (inactive) | IC50 [8]: > 99 µM (inactive) | IC50 [9]: > 99 µM (inactive)

c1cc2n(n1)CCN2
GI50 (P388/ADR): 294 µM (inactive) | GI50 (SN12K1): 1150 µM (inactive) | GI50 (P388): 361 µM (inactive)

Cc1cccc2sc(NC(=O)c3ccc(NS(=O)(=O)c4cccs4)cc3)nc12
EC50 [15]: 2.22 µM (active) | EC50 (Streptococcus): 3.77 µM (active) | IC50 (Caspase-3 [2]): 36.5 µM (active) | IC50 [3]: 7.27 µM (active) | IC50 [4]: 8.6 µM (active) | IC50 [5]: 11.6 µM (active)

COc1cc(NC(=O)Nc2ccc(F)cc2)cc2sc(NC(=O)c3ccccc3)nc12
IC50 [6]: > 99 µM (inactive) | IC50 (Caspase-3 [7]): > 99 µM (inactive) | IC50 [8]: > 99 µM (inactive) | IC50 [9]: > 99 µM (inactive)
